The experiment concerns recombinant HIV-2 protease. The experiment in a line: In vitro inhibition of recombinant HIV-2 protease expressed in Escherichia coli strain X90.

Here are results for 1 compound from BindingDB's records for doi:10.1021/jm00031a017 (University of California, 1994).

Regarding `O=C(C=CC[N+]1([O-])CCC(O)(c2ccc(Cl)cc2)CC1)c1ccc(F)cc1` (stereo unspecified) [(E)-4-[4-(4-Chloro-phenyl)-4-hydroxy-1-oxy-piperidin-1-yl]-1-(4-fluoro-phenyl)-but-2-en-1-one], the half-inhibitory concentration (IC50) (in general, the concentration that gives 50% inhibition) came to 40 µM.
